In PubChem BioAssay AID248 (DTP/NCI, 2004):
Values joined by “and” are separate entries in the source; they are usually repeats but may differ in a detail not shown here. Equal entries are not always repeated. Toxic doses and inconclusive results are not listed. No stated cut-off is given here; in the data, active means T/C of 150% or more; inactive means T/C below 125%.

Tested on: L1210 leukemia ip in BDF1 mice, survival T/C
Assay: NCI In Vivo Anticancer Drug Screen. Data for tumor model L1210 Leukemia (intraperitoneal) in B6D2F1 (BDF1) mice
Conditions: endpoint: mean survival time, higher = longer survival
Protocol: The antitumor activity of compounds was measured in mice bearing transplantable tumors. Survival or tumor size were measured and the results are expressed as the measurement made in the treated group (T) divided by the measurement made in the vehicle treated control group (C). The tumor model used in this assay is L1210 Leukemia (intraperitoneal) in B6D2F1 (BDF1) mice

[1] = dose: 100.0 mg/kg/injection, schedule: Q01DX009 (ip), vehicle: water
[2] = dose: 200.0 mg/kg/injection, schedule: Q01DX009 (ip), vehicle: water
[3] = dose: 100.0 mg/kg/injection, schedule: Q01DX001 (ip), vehicle: carboxymethylcellulose (CMC)
[4] = dose: 200.0 mg/kg/injection, schedule: Q01DX001 (ip), vehicle: carboxymethylcellulose (CMC)
[5] = dose: 400.0 mg/kg/injection, schedule: Q01DX001 (ip), vehicle: carboxymethylcellulose (CMC)
[6] = dose: 50.0 mg/kg/injection, schedule: Q01DX001 (ip), vehicle: carboxymethylcellulose (CMC)
[7] = dose: 50.0 mg/kg/injection, schedule: Q04DX003 (ip), vehicle: Klucel (hydroxypropylcellulose) (HPC)
[8] = dose: 100.0 mg/kg/injection, schedule: Q04DX003 (ip), vehicle: Klucel (hydroxypropylcellulose) (HPC)
[9] = dose: 200.0 mg/kg/injection, schedule: Q04DX003 (ip), vehicle: Klucel (hydroxypropylcellulose) (HPC)
[10] = dose: 100.0 mg/kg/injection, schedule: Q01DX009 (ip), vehicle: other
[11] = dose: 200.0 mg/kg/injection, schedule: Q01DX009 (ip), vehicle: other
[12] = dose: 100.0 mg/kg/injection, schedule: Q04DX003 (ip), vehicle: saline with Tween-80
[13] = dose: 200.0 mg/kg/injection, schedule: Q04DX003 (ip), vehicle: saline with Tween-80
[14] = dose: 100.0 mg/kg/injection, schedule: Q01DX009 (ip), vehicle: Klucel (hydroxypropylcellulose) (HPC)
[15] = dose: 200.0 mg/kg/injection, schedule: Q01DX009 (ip), vehicle: Klucel (hydroxypropylcellulose) (HPC)
[16] = dose: 100.0 mg/kg/injection, schedule: Q01DX001 (ip), vehicle: saline
[17] = dose: 200.0 mg/kg/injection, schedule: Q01DX001 (ip), vehicle: saline
[18] = dose: 400.0 mg/kg/injection, schedule: Q01DX001 (ip), vehicle: saline

Measured: T/C

CC(=O)N1C=Cn2c(cnc2C)C1O (centres undefined)
inactive: [1] 104 % of control | dose: 100.0 mg/kg/injection, schedule: Q04DX003 (ip), vehicle: water 109 % of control | [2] 94 % of control | dose: 200.0 mg/kg/injection, schedule: Q04DX003 (ip), vehicle: water 102 % of control | dose: 400.0 mg/kg/injection, schedule: Q04DX003 (ip), vehicle: water 98 % of control

Nc1ccc2c(c1)Cc1cc(NC=O)ccc1-2
inactive: [3] 101 % of control | [4] 97 % of control | [5] 92 % of control

O=C(O)C1(Br)c2ccccc2-c2ccccc21
inactive: [6] 100 % of control | [7] 100 % of control | [3] 100 % of control | [8] 94 % of control | [4] 96 % of control | [9] 96 % of control | [5] 105 % of control

CC(=O)Nc1ccc(/C=N\NC(=O)N/N=C/c2ccc(NC(C)=O)cc2)cc1
inactive: [7] 90 % of control | [8] 91 % of control

Nc1cccc2cn[nH]c12
inactive: [10] 104 % of control | [11] 112 % of control

O=C(c1ccccc1)c1ccsc1C(=O)c1ccccc1
inactive: dose: 50.0 mg/kg/injection, schedule: Q01DX009 (ip), vehicle: saline with Tween-80 89 % of control | dose: 100.0 mg/kg/injection, schedule: Q01DX009 (ip), vehicle: saline with Tween-80 86 % of control | dose: 200.0 mg/kg/injection, schedule: Q01DX009 (ip), vehicle: saline with Tween-80 89 % of control

COc1cc2cncc(CC(=O)c3ccc4c(c3)OCO4)c2cc1OC
inactive: [12] 106 % of control | [13] 88 % of control

O=C1c2ccccc2C(C2c3ccccc3C(=O)c3ccccc32)c2ccccc21
inactive: [6] 89 % of control | [3] 89 % of control | [5] 86 % of control

CC(=O)NNC(=O)c1cnccn1
inactive: dose: 6.25 mg/kg/injection, schedule: Q04DX003 (ip), vehicle: saline 100 % of control | dose: 12.5 mg/kg/injection, schedule: Q04DX003 (ip), vehicle: saline 97 % of control | dose: 24.0 mg/kg/injection, schedule: Q04DX003 (ip), vehicle: saline 97 % of control | dose: 25.0 mg/kg/injection, schedule: Q01DX009 (ip), vehicle: water 95 % of control and 98 % of control | dose: 48.0 mg/kg/injection, schedule: Q04DX003 (ip), vehicle: saline 102 % of control | dose: 50.0 mg/kg/injection, schedule: Q01DX009 (ip), vehicle: water 97 % of control and 102 % of control | [1] 112 % of control and 123 % of control | dose: 200.0 mg/kg/injection, schedule: Q01DX001 (ip), vehicle: water 103 % of control | [2] 116 % of control and 118 % of control

NCc1c(Cl)cccc1[N+](=O)[O-]
inactive: dose: 50.0 mg/kg/injection, schedule: Q01DX009 (ip), vehicle: Klucel (hydroxypropylcellulose) (HPC) 96 % of control and 108 % of control | [14] 96 % of control and 99 % of control and 101 % of control | dose: 100.0 mg/kg/injection, schedule: Q04DX002 (ip), vehicle: Klucel (hydroxypropylcellulose) (HPC) 105 % of control | dose: 100.0 mg/kg/injection, schedule: Q04DX002 (ip), vehicle: saline 102 % of control | [15] 94 % of control and 104 % of control and 110 % of control | dose: 200.0 mg/kg/injection, schedule: Q04DX002 (ip), vehicle: Klucel (hydroxypropylcellulose) (HPC) 100 % of control | dose: 200.0 mg/kg/injection, schedule: Q04DX002 (ip), vehicle: saline 94 % of control

COc1cc2c(c(OC)c1OC)-c1ccc(SCC3CCC4CC3C4(C)C)c(=O)cc1C(NC(C)=O)CC2 (centres undefined)
inactive: dose: 12.5 mg/kg/injection, schedule: Q04DX002 (ip), vehicle: saline 100 % of control | dose: 25.0 mg/kg/injection, schedule: Q04DX002 (ip), vehicle: saline 95 % of control | dose: 50.0 mg/kg/injection, schedule: Q04DX002 (ip), vehicle: saline 106 % of control

NC(CSCc1ccccc1)(CSCc1ccccc1)C(=O)O
inactive: dose: 25.0 mg/kg/injection, schedule: Q01DX009 (ip), vehicle: other 107 % of control | dose: 50.0 mg/kg/injection, schedule: Q01DX009 (ip), vehicle: other 105 % of control | [10] 100 % of control | [11] 91 % of control | dose: 400.0 mg/kg/injection, schedule: Q01DX009 (ip), vehicle: other 113 % of control

CC12CCCC([N+](=O)[O-])(C1)NC(=O)C2C#N (centres undefined)
inactive: [16] 105 % of control | [17] 106 % of control | [18] 101 % of control

O=C(Nc1ccccc1C(F)(F)F)C(c1ccccc1)c1ccccc1
inactive: [14] 93 % of control | [8] 96 % of control | [15] 88 % of control | [9] 96 % of control | dose: 400.0 mg/kg/injection, schedule: Q01DX009 (ip), vehicle: Klucel (hydroxypropylcellulose) (HPC) 90 % of control | dose: 400.0 mg/kg/injection, schedule: Q04DX003 (ip), vehicle: Klucel (hydroxypropylcellulose) (HPC) 95 % of control

C=CCC(OC(=O)Nc1ccc(Cl)cc1)C1OC(c2ccccc2)OC2COC(c3ccccc3)OC21 (centres undefined)
inactive: dose: 100.0 mg/kg/injection, schedule: Q01DX001 (ip), vehicle: gum acacia 91 % of control | dose: 200.0 mg/kg/injection, schedule: Q01DX001 (ip), vehicle: gum acacia 91 % of control | dose: 400.0 mg/kg/injection, schedule: Q01DX001 (ip), vehicle: gum acacia 93 % of control

Cc1cccc2c(CCC(=O)O)c[nH]c12
inactive: [16] 100 % of control | [17] 94 % of control | [18] 94 % of control

COc1cc2ccnc(/C=N\NC(N)=S)c2cc1OC
inactive: dose: 50.0 mg/kg/injection, schedule: Q01DX001 (ip), vehicle: saline 93 % of control | [16] 98 % of control | [17] 93 % of control

CN(C)S(=O)(=O)Oc1cccc([N+](=O)[O-])c1
inactive: dose: 25.0 mg/kg/injection, schedule: Q04DX003 (ip), vehicle: saline with Tween-80 100 % of control | dose: 50.0 mg/kg/injection, schedule: Q04DX003 (ip), vehicle: saline with Tween-80 104 % of control | [12] 100 % of control

O/N=C1/C=C(c2ccccc2)C(O)(c2ccccc2)C1 (centres undefined)
inactive: [12] 102 % of control | [13] 96 % of control | dose: 400.0 mg/kg/injection, schedule: Q04DX003 (ip), vehicle: saline with Tween-80 93 % of control

CCCCCCCCCCCCOc1ccc(C(=O)CC(=O)OCC)cc1
inactive: dose: 100.0 mg/kg/injection, schedule: Q01DX001 (ip), vehicle: acetone 95 % of control | dose: 200.0 mg/kg/injection, schedule: Q01DX001 (ip), vehicle: acetone 100 % of control | dose: 200.0 mg/kg/injection, schedule: Q04DX003 (ip), vehicle: saline 90 % of control | dose: 400.0 mg/kg/injection, schedule: Q01DX001 (ip), vehicle: acetone 108 % of control | dose: 400.0 mg/kg/injection, schedule: Q04DX003 (ip), vehicle: saline 89 % of control

CCOC(=O)NP(=O)(NNc1ccccc1)NNc1ccccc1
inactive: [6] 104 % of control | [3] 89 % of control | [4] 95 % of control | [5] 89 % of control
